Experimental data taken from patent publication US7507729B2, “Substituted imidazo-[1,5-a][1,2,4]triazolo[1,5-d][1,4] benzodiazepine derivatives” (priority 2005, dated 2009).
Counter-ions that a name gives are not always drawn. Like-named read-outs stand apart in the source and are kept apart here.

Experiments:
[1] = target: T1, GABA A receptor α1β3γ2 (hα1) (Homo sapiens, UniProt P14867+P18507); assay: [3H]flumazenil competition binding, membranes of HEK293 cells expressing human GABA A α1β3γ2
T1 construct: expressed in transfected cells; host or cells: HEK293, transiently transfected; membranes
Experimental: (§1) The affinity of compounds at GABA A receptor subtypes was measured by competition for [^3H]flumazenil (85 Ci/mmol; Roche) binding to HEK293 cells expressing rat (stably transfected) or human (transiently transfected) receptors of composition α1β3γ2, α2β3γ2, α3β3γ2 and α5β3γ2.
(§2) Cell pellets were suspended in Krebs-tris buffer (4.8 mM KCl, 1.2 mM CaCl2, 1.2 mM MgCl2, 120 mM NaCl, 15 mM Tris; pH 7.5; binding assay buffer), homogenized by polytron for ca. 20 sec on ice and centrifuged for 60 min at 4° C. (50000 g; Sorvall, rotor: SM24=20000 rpm). The cell pellets were resuspended in Krebs-tris buffer and homogenized by polytron for ca. 15 sec on ice. Protein was measured (Bradford method, Bio-Rad) and aliquots of 1 mL were prepared and stored at −80° C.
(§3) Radioligand binding assays were carried out in a volume of 200 μL (96-well plates) which contained 100 μL of cell membranes, [^3H]flumazenil at a concentration of 1 nM for α1, α2, α3 subunits and 0.5 nM for α5 subunits and the test compound in the range of 10^−10-3×10^−6 M.
(§4) Nonspecific binding was defined by 10^−5 M diazepam and typically represented less than 5% of the total binding. Assays were incubated to equilibrium for 1 hour at 4° C. and harvested onto GF/C uni-filters (Packard) by filtration using a Packard harvester and washing with ice-cold wash buffer (50 mM Tris; pH 7.5). After drying, filter-retained radioactivity was detected by liquid scintillation counting. Ki values were calculated using Excel-Fit (Microsoft) and are the means of two determinations.

[2] = target: T2, GABA A receptor α5β3γ2 (hα5) (Homo sapiens, UniProt P18507+P31644); assay: [3H]flumazenil competition binding, membranes of HEK293 cells expressing human GABA A α5β3γ2
T2 construct: expressed in transfected cells; host or cells: HEK293, transiently transfected; membranes
Experimental: as §1, §2, §3, §4

[3] = [3H]flumazenil 1 nM, 1 hour at 4° C., means of two determinations, read-out: Ki[nM] hα1
[4] = [3H]flumazenil 0.5 nM, 1 hour at 4° C., means of two determinations, read-out: Ki[nM] hα5

Compound	Ki [1, 3] [nM]	Ki [2, 4] [nM]	Ki [1] [nM]	Ki [2] [nM]
3-Bromo-10-chloro-6-(hydroxy-phenyl-ethyl)-9H-imidazo[1,5-a][1,2,4]triazolo[1,5-d][1,4]benzodiazepine [Example 54]	34.6	0.9	–	–
CCOC(=O)c1ncn2c1Cn1nc(COC)nc1-c1cc(Cl)ccc1-2 [Example 4, Ethyl 3-chloro-6-methoxymethyl-9H-imidazo[1,5-a][1,2,4]triazolo[1,5-d][1,4]benzodiazepine-10-carboxylate]	–	0.3	8.5	–
Clc1ccc2c(c1)-c1nc(Cn3nccn3)nn1Cc1c(Cl)ncn1-2 [Example 10, 3,10-Dichloro-6-[1,2,3]triazol-2-ylmethyl-9H-imidazo[1,5-a][1,2,4]triazolo[1,5-d][1,4]benzodiazepine]	–	0.4	63.3	–
Clc1ccc2c(c1)-c1nc(Cn3ccnn3)nn1Cc1c(Cl)ncn1-2 [Example 11, 3,10-Dichloro-6-[1,2,3]triazol-1-ylmethyl-9H-imidazo[1,5-a][1,2,4]triazolo[1,5-d][1,4]benzodiazepine]	–	0.5	48.3	–
Clc1ccc2c(c1)-c1nc(Cn3cncn3)nn1Cc1c(Cl)ncn1-2 [Example 12, 3,10-Dichloro-6-[1,2,4]triazol-1-ylmethyl-9H-imidazo[1,5-a][1,2,4]triazolo[1,5-d][1,4]benzodiazepine]	–	0.8	51.8	–
Clc1ccc2c(c1)-c1nc(Cn3cccn3)nn1Cc1c(Cl)ncn1-2 [Example 13, 3,10-Dichloro-6-pyrazol-1-ylmethyl-9H-imidazo[1,5-a][1,2,4]triazolo[1,5-d][1,4]benzodiazepine]	–	0.9	30.7	–
Clc1ccc2c(c1)-c1nc(Cn3nc4ccccc4n3)nn1Cc1c(Cl)ncn1-2 [Example 21, 6-Benzotriazol-2-ylmethyl-3,10-dichloro-9H-imidazo[1,5-a][1,2,4]triazolo[1,5-d][1,4]benzodiazepine]	133	–	–	–
Clc1ccc2c(c1)-c1nc(Cn3nnc4ccccc43)nn1Cc1c(Cl)ncn1-2 [Example 22, 6-Benzotriazol-1-ylmethyl-3,10-dichloro-9H-imidazo[1,5-a][1,2,4]triazolo[1,5-d][1,4]benzodiazepine]	–	0.4	53	–
Clc1ccc2c(c1)-c1nc(Cn3cc4ccccc4n3)nn1Cc1c(Cl)ncn1-2 [Example 26, 3,10-Dichloro-6-indazol-2-ylmethyl-9H-imidazo[1,5-a][1,2,4]triazolo[1,5-d][1,4]benzodiazepine]	111	–	–	–
O=C1CCCN1Cc1nc2n(n1)Cc1c(Cl)ncn1-c1ccc(Br)cc1-2 [Example 49, 3-Bromo-10-chloro-6-(2-oxo-pyrrolidin-1-ylmethyl)-9H-imidazo[1,5-a][1,2,4]triazolo[1,5-d][1,4]benzodiazepine]	–	0.9	114	–
O=C1OCCN1Cc1nc2n(n1)Cc1c(Cl)ncn1-c1ccc(Br)cc1-2 [Example 50]	–	–	85.7	–
OC(c1cccnc1)c1nc2n(n1)Cc1c(Cl)ncn1-c1ccc(Br)cc1-2 (stereo not shown) [Example 58, 3-Bromo-10-chloro-6-(hydroxy-pyridin-3-yl-methyl)-9H-imidazo[1,5-a][1,2,4]triazolo[1,5-d][1,4]benzodiazepine]	69.4	0.7	–	–
O=C(Cc1nc2n(n1)Cc1c(Cl)ncn1-c1ccc(Br)cc1-2)NC1CCCC1 [Example 61, 3-Bromo-10-chloro-6-cyclopentylcarbamoylmethyl-9H-imidazo[1,5-a][1,2,4]triazolo[1,5-d][1,4]benzodiazepine]	–	0.6	91.7	–
O=C(Cc1nc2n(n1)Cc1c(Cl)ncn1-c1ccc(Br)cc1-2)NC1CCOCC1 [Example 62, 3-Bromo-10-chloro-6-[(tetrahydro-pyran-4-ylcarbamoyl)-methyl]-9H-imidazo[1,5-a][1,2,4]triazolo[1,5-d][1,4]benzodiazepine]	–	0.7	88.4	–
O=C(Cc1nc2n(n1)Cc1c(Cl)ncn1-c1ccc(Br)cc1-2)NCc1cccnc1 [Example 63, 3-Bromo-10-chloro-6-{[(Pyridin-3-ylmethyl)-carbamoyl]-methyl}-9H-imidazo[1,5-a][1,2,4]triazolo[1,5-d][1,4]benzodiazepine]	–	0.8	64.7	–
O=C(Cc1nc2n(n1)Cc1c(Cl)ncn1-c1ccc(Br)cc1-2)NCC1CC1 [Example 64, 3-Bromo-10-chloro-6-[(cyclopropylmethyl-carbamoyl)-methyl]-9H-imidazo[1,5-a][1,2,4]triazolo[1,5-d][1,4]benzodiazepine]	–	0.5	68.8	–
O=C(Cc1nc2n(n1)Cc1c(Cl)ncn1-c1ccc(Br)cc1-2)NCCO [Example 65, 3-Bromo-10-chloro-6-[(2-hydroxy-ethylcarbamoyl)-methyl]-9H-imidazo[1,5-a][1,2,4]triazolo[1,5-d][1,4]benzodiazepine]	–	–	149	–
Cc1noc(Cc2nc3n(n2)Cc2c(Cl)ncn2-c2ccc(Br)cc2-3)n1 [Example 72, 3-Bromo-10-chloro-6-(3-methyl-[1,2,4]oxadiazol-5-ylmethyl)-9H-imidazo[1,5-a][1,2,4]triazolo[1,5-d][1,4]benzodiazepine]	–	0.7	98.2	–
COCC1CN(Cc2nc3n(n2)Cc2c(Cl)ncn2-c2ccc(Br)cc2-3)C(=O)O1 (stereo not shown) [Example 83, 3-Bromo-10-chloro-6-(5-methoxymethyl-2-oxo-oxazolidin-3-ylmethyl)-9H-imidazo[1,5-a][1,2,4]triazolo[1,5-d][1,4]benzodiazepine]	113	–	–	–
Cc1ncn2c1Cn1nc(Cc3ccncc3)nc1-c1cc(Br)ccc1-2 [Example 122, 3-Bromo-10-methyl-6-(pyridine-4-ylmethyl)-9H-imidazo[1,5-a][1,2,4]triazolo[1,5-d][1,4]benzodiazepine]	150	–	–	0.5
Cc1cc(Cc2nc3n(n2)Cc2c(C)ncn2-c2ccc(Br)cc2-3)on1 [Example 123, 3-Bromo-10-methyl-6-(3-methyl-isoxazol-5-ylmethyl)-9H-imidazo[1,5-a][1,2,4]triazolo[1,5-d][1,4]benzodiazepine]	188	–	–	0.6
Cc1ccc(Cc2nc3n(n2)Cc2c(C)ncn2-c2ccc(Br)cc2-3)cn1 [Example 124, 3-Bromo-10-methyl-6-(6-methyl-pyridin-3-ylmethyl)-9H-imidazo[1,5-a][1,2,4]triazolo[1,5-d][1,4]benzodiazepine]	219	–	–	–
Cc1ncn2c1Cn1nc(Cn3ccnn3)nc1-c1cc(Br)ccc1-2 [Example 162, 3-Bromo-10-methyl-6-[1,2,3]triazol-1-ylmethyl-9H-imidazo[1,5-a][1,2,4]triazolo[1,5-d][1,4]benzodiazepine hydrochloride (1:1)]	152	–	–	–
COc1ccccc1Cc1nc2n(n1)Cc1c(C)ncn1-c1ccc(Br)cc1-2 [Example 168, 3-Bromo-6-(2-methoxy-benzyl)-10-methyl-9H-imidazo[1,5-a][1,2,4]triazolo[1,5-d][1,4]benzodiazepine hydrochloride (1:1)]	–	–	63.4	–
Cc1cc(Cc2nc3n(n2)Cc2c(C)ncn2-c2ccc(Cl)cc2-3)on1 [Example 183, 3-Chloro-10-methyl-6-(3-methyl-isoxazol-5-ylmethyl)-9H-imidazo[1,5-a][1,2,4]triazolo[1,5-d][1,4]benzodiazepine hydrochloride (1:1)]	279	–	–	0.6
Cc1ccc(Cc2nc3n(n2)Cc2c(C)ncn2-c2ccc(Cl)cc2-3)cn1 [Example 185, 3-Chloro-10-methyl-6-(6-methyl-pyridin-3-ylmethyl)-9H-imidazo[1,5-a][1,2,4]triazolo[1,5-d][1,4]benzodiazepine]	248	–	–	0.9
Cc1cc(Cc2nc3n(n2)Cc2c(C)ncn2-c2ccc(Cl)cc2-3)ccn1 [Example 191, 3-Chloro-10-methyl-6-(2-methyl-pyridin-4-ylmethyl)-9H-imidazo[1,5-a][1,2,4]triazolo[1,5-d][1,4]benzodiazepine]	266	–	–	–
Cc1ccc2c(c1)-c1nc(Cc3cc(C)no3)nn1Cc1c(C)ncn1-2 [Example 236, 3,10-Dimethyl-6-(3-methyl-isoxazol-5-ylmethyl)-9H-imidazo[1,5-a][1,2,4]triazolo[1,5-d][1,4]benzodiazepine]	496	–	–	0.8
Cc1ncn2c1Cn1nc(Cn3ccnn3)nc1-c1cc(Cl)ccc1-2 [Example 364, 3-Chloro-10-methyl-6-[1,2,3]triazol-1-ylmethyl-9H-imidazo[1,5-a][1,2,4]triazolo[1,5-d][1,4]benzodiazepine hydrochloride (1:1)]	134	–	–	–
Cc1ncn2c1Cn1nc(Cc3ccn[nH]3)nc1-c1ccccc1-2 [Example 380, 10-Methyl-6-(2H-pyrazol-3-ylmethyl)-9H-imidazo[1,5-a][1,2,4]triazolo[1,5-d][1,4]benzodiazepine hydrochloride (1:1)]	–	–	56.6	–
